#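 Assay format: 96-well plates, 48-hour exposure. The concentration for 50% growth inhibition is given as GI50.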 Calls of active or inactive are those of the source. Rule as the data show it: active = GI50 up to about 1.1 µM and inactive = higher.
# How the values were obtained:
# Assay in all cases: NCI-60 cell line screen, 48 h
# [1] = test system: 786-0
# [2] = test system: HT-29
# [3] = test system: IGROV-1
# [4] = test system: UACC-257
# [5] = test system: DU-145
# [6] = test system: HCT-116
# [7] = test system: NCI/ADR-RES
# [8] = test system: EKVX
# [9] = test system: CAKI-1
# [10] = test system: NCI-H23
# [11] = test system: A549
# [12] = test system: PC-3
# [13] = test system: SF-268
# [14] = test system: T47D
# [15] = test system: OVCAR-4
# [16] = test system: KM12
# [17] = test system: SW-620
# [18] = test system: SK-MEL-2
# [19] = test system: SR
Structure (SMILES),GI50 [1],GI50 [2],GI50 [3],GI50 [4],GI50 [5],GI50 [6],GI50 [7],GI50 [8],GI50 [9],GI50 [10],GI50 [11],GI50 [12],GI50 [13],GI50 [14],GI50 [15],GI50 [16],GI50 [17],GI50 [18],GI50 [19]
CC(=O)OCC1OC(n2c3c(c(-c4ccco4)c(C#N)c2=S)CCCC3)C(OC(C)=O)C(OC(C)=O)C1OC(C)=O (stereo unspecified),25.1 µM (inactive),> 31.6 µM (inactive),21.9 µM (inactive),> 31.6 µM (inactive),> 31.6 µM (inactive),21.3 µM (inactive),17.1 µM (inactive),16.6 µM (inactive),29.7 µM (inactive),> 20.2 µM (inactive),30 µM (inactive),> 10 µM (inactive),13.5 µM (inactive),> 31.6 µM (inactive),9.16 µM (inactive),> 31.6 µM (inactive),> 100 µM (inactive),17.9 µM (inactive),> 31.6 µM (inactive)
CC1(C)COC2=C(C1)C(=O)c1ccccc1C2=O,1.84 µM (inactive),2.53 µM (inactive),1.65 µM (inactive),0.828 µM (active),1.64 µM (inactive),0.449 µM (active),0.452 µM (active),1.9 µM (inactive),2.23 µM (inactive),1.54 µM (inactive),2.26 µM (inactive),1.55 µM (inactive),1.65 µM (inactive),0.558 µM (active),1.53 µM (inactive),1.76 µM (inactive),1.69 µM (inactive),1.91 µM (inactive),2.66 µM (inactive)
Cn1c(CC(O)c2nc3ccccc3n2C)nc2ccccc21 (stereo unspecified),> 44.6 µM (inactive),> 32.8 µM (inactive),> 17.4 µM (inactive),> 19.1 µM (inactive),> 14.6 µM (inactive),> 23.7 µM (inactive),29.9 µM (inactive),> 100 µM (inactive),> 100 µM (inactive),> 17.6 µM (inactive),> 56.6 µM (inactive),> 29.2 µM (inactive),> 16.2 µM (inactive),> 8.57 µM (inactive),> 23.3 µM (inactive),> 100 µM (inactive),> 16 µM (inactive),> 31.3 µM (inactive),> 100 µM (inactive)
CCOC(=O)/C=C(/C(=O)OCC)n1ccc(=O)n(/C(=C/C(=O)OCC)C(=O)OCC)c1=O,2.4 µM (inactive),7.74 µM (inactive),15.9 µM (inactive),10.6 µM (inactive),18.6 µM (inactive),2.39 µM (inactive),22.9 µM (inactive),11.4 µM (inactive),1.66 µM (inactive),16 µM (inactive),17.3 µM (inactive),15 µM (inactive),18.6 µM (inactive),4.48 µM (inactive),9.93 µM (inactive),17.2 µM (inactive),2.04 µM (inactive),12.7 µM (inactive),5.28 µM (inactive)
O=C(CN(c1ccc(S(=O)(=O)O)cc1)c1ccc(S(=O)(=O)O)cc1)Nn1cnc2ccc(S(=O)(=O)N(c3ccc(S(=O)(=O)O)cc3)c3ccc(S(=O)(=O)O)cc3)cc2c1=O,> 100 µM (inactive),> 100 µM (inactive),61.2 µM (inactive),> 100 µM (inactive),> 100 µM (inactive),> 100 µM (inactive),> 100 µM (inactive),> 100 µM (inactive),> 100 µM (inactive),> 100 µM (inactive),> 100 µM (inactive),> 100 µM (inactive),> 100 µM (inactive),> 100 µM (inactive),> 100 µM (inactive),> 100 µM (inactive),> 100 µM (inactive),> 100 µM (inactive),> 100 µM (inactive)
COC(=O)c1ccc(Nc2nc3[nH]cnc3c(=O)[nH]2)cc1,> 100 µM (inactive),58.7 µM (inactive),> 100 µM (inactive),> 100 µM (inactive),> 100 µM (inactive),> 100 µM (inactive),> 100 µM (inactive),> 100 µM (inactive),> 100 µM (inactive),> 100 µM (inactive),> 100 µM (inactive),> 100 µM (inactive),94 µM (inactive),69 µM (inactive),> 100 µM (inactive),> 100 µM (inactive),> 100 µM (inactive),> 100 µM (inactive),65.9 µM (inactive)
C[C@@H]1CC[C@@]2(C)[C@H](C)/C(=C\COC(=O)/C=C/c3ccc(O)c(O)c3)CC[C@@]12C [NAVICULYL CAFFEATE],4.37 µM (inactive),3.94 µM (inactive),7.31 µM (inactive),11.8 µM (inactive),8.02 µM (inactive),2.78 µM (inactive),7.8 µM (inactive),15 µM (inactive),4.58 µM (inactive),9.23 µM (inactive),7.62 µM (inactive),4.71 µM (inactive),9.84 µM (inactive),12.6 µM (inactive),4.65 µM (inactive),3.95 µM (inactive),4.95 µM (inactive),12.6 µM (inactive),2.41 µM (inactive)
Cc1nn2c(=O)c([N+](=O)[O-])c(/C=C/c3ccccc3)nc2s1,4.52 µM (inactive),3.04 µM (inactive),5.51 µM (inactive),8.57 µM (inactive),3.74 µM (inactive),3.42 µM (inactive),3.56 µM (inactive),4.61 µM (inactive),7.78 µM (inactive),11 µM (inactive),5.46 µM (inactive),4.13 µM (inactive),3.92 µM (inactive),3.72 µM (inactive),10.5 µM (inactive),3.13 µM (inactive),5.24 µM (inactive),3.1 µM (inactive),2.43 µM (inactive)
O=C1C(c2c(O)[nH]c3ccc(Br)cc23)=Nc2ccc(Br)cc21,24 µM (inactive),48.4 µM (inactive),1.71 µM (inactive),> 100 µM (inactive),25.4 µM (inactive),18 µM (inactive),34 µM (inactive),38.1 µM (inactive),> 100 µM (inactive),27.5 µM (inactive),32.7 µM (inactive),51.3 µM (inactive),33 µM (inactive),> 100 µM (inactive),53.7 µM (inactive),44.2 µM (inactive),74.5 µM (inactive),> 100 µM (inactive),32.1 µM (inactive)
CN1Cc2c(ccc3c2OCO3)[C@@H]2[C@H](O)Cc3cc4c(cc3[C@@H]21)OCO4,4.09 µM (inactive),2.14 µM (inactive),3.87 µM (inactive),5.26 µM (inactive),4.4 µM (inactive),3.4 µM (inactive),2.35 µM (inactive),4.51 µM (inactive),4.89 µM (inactive),3.31 µM (inactive),4.15 µM (inactive),2.66 µM (inactive),4.82 µM (inactive),9.23 µM (inactive),> 86.7 µM (inactive),2.48 µM (inactive),3.62 µM (inactive),2.68 µM (inactive),4.15 µM (inactive)
COC(=O)C(CC(C)C)NC(=O)C(NC(=O)c1ccc(-c2ccc(Cl)cc2Cl)o1)C(C)C (stereo unspecified),16.1 µM (inactive),15.3 µM (inactive),18.7 µM (inactive),17.1 µM (inactive),21.8 µM (inactive),12.3 µM (inactive),18.7 µM (inactive),13.7 µM (inactive),15.7 µM (inactive),22.5 µM (inactive),21 µM (inactive),14.1 µM (inactive),22 µM (inactive),15.3 µM (inactive),24.9 µM (inactive),20.8 µM (inactive),28.8 µM (inactive),21.3 µM (inactive),19.2 µM (inactive)
CC1C2Cc3ccc(O)cc3C1(C)CCN2C (stereo unspecified),> 100 µM (inactive),> 100 µM (inactive),> 100 µM (inactive),> 100 µM (inactive),> 100 µM (inactive),> 100 µM (inactive),> 100 µM (inactive),> 100 µM (inactive),> 100 µM (inactive),> 100 µM (inactive),> 100 µM (inactive),> 100 µM (inactive),> 100 µM (inactive),> 100 µM (inactive),> 100 µM (inactive),> 100 µM (inactive),> 100 µM (inactive),> 100 µM (inactive),> 100 µM (inactive)
c1cc(-c2ccc(-c3nc4ccc(C5=NCCN5)cc4s3)s2)ccc1C1=NCCN1,0.156 µM (active),0.596 µM (active),0.313 µM (active),22.5 µM (inactive),0.19 µM (active),0.351 µM (active),5.53 µM (inactive),1.28 µM (inactive),1.51 µM (inactive),0.813 µM (active),0.166 µM (active),0.805 µM (active),0.214 µM (active),0.483 µM (active),0.182 µM (active),0.565 µM (active),1.02 µM (active),1.27 µM (inactive),0.231 µM (active)
CC1=C/C(=C(/c2ccc(O)c(C)c2)c2ccccc2C(=O)O)C=CC1=O,19 µM (inactive),21.9 µM (inactive),18.1 µM (inactive),18.7 µM (inactive),18.1 µM (inactive),18.2 µM (inactive),31 µM (inactive),19.4 µM (inactive),17.6 µM (inactive),20.2 µM (inactive),19.5 µM (inactive),19.6 µM (inactive),25.2 µM (inactive),26.8 µM (inactive),18.1 µM (inactive),19.3 µM (inactive),19 µM (inactive),20.6 µM (inactive),20.7 µM (inactive)

# Source: ChEMBL document CHEMBL1201862, “PubChem BioAssay data set” (2004)
